Test results reported in PubChem BioAssay (NCI).
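How tested: cells in 96-well plates exposed to compound for 48 hours at five concentrations. At the GI50, growth is halved. TGI: concentration producing complete growth inhibition.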

How the values were obtained:
Assay in all cases: NCI anticancer screen, dose series, 48 h
KM12 colon = test system: KM12 colon
SNB-75 CNS = test system: SNB-75 CNS
MOLT-4 leukemia = test system: MOLT-4 leukemia
IGROV1 ovarian = test system: IGROV1 ovarian
LOX IMVI melanoma = test system: LOX IMVI melanoma
HOP-92 NSCLC = test system: HOP-92 NSCLC
SK-MEL-28 melanoma = test system: SK-MEL-28 melanoma
786-0 renal = test system: 786-0 renal
EKVX NSCLC = test system: EKVX NSCLC
HL-60(TB) leukemia = test system: HL-60(TB) leukemia
SF-268 CNS = test system: SF-268 CNS
SR leukemia = test system: SR leukemia
OVCAR-5 ovarian = test system: OVCAR-5 ovarian
CAKI-1 renal = test system: CAKI-1 renal
UO-31 renal = test system: UO-31 renal
DU-145 prostate = test system: DU-145 prostate
TK-10 renal = test system: TK-10 renal
HCT-15 colon = test system: HCT-15 colon
HCC-2998 colon = test system: HCC-2998 colon
BT-549 breast = test system: BT-549 breast
MDA-MB-435 = test system: MDA-MB-435
A498 renal = test system: A498 renal
SF-295 CNS = test system: SF-295 CNS
OVCAR-3 ovarian = test system: OVCAR-3 ovarian
K-562 leukemia = test system: K-562 leukemia
UACC-257 melanoma = test system: UACC-257 melanoma
ACHN renal = test system: ACHN renal
RXF 393 renal = test system: RXF 393 renal
SK-OV-3 ovarian = test system: SK-OV-3 ovarian
OVCAR-8 ovarian = test system: OVCAR-8 ovarian
RPMI-8226 leukemia = test system: RPMI-8226 leukemia
SW-620 colon = test system: SW-620 colon
MDA-MB-231 breast = test system: MDA-MB-231 breast
NCI-H460 lung = test system: NCI-H460 lung
SN12C renal = test system: SN12C renal
UACC-62 melanoma = test system: UACC-62 melanoma
SNB-19 CNS = test system: SNB-19 CNS
PC-3 prostate = test system: PC-3 prostate
CCRF-CEM leukemia = test system: CCRF-CEM leukemia
NCI/ADR-RES ovarian = test system: NCI/ADR-RES ovarian
SF-539 CNS = test system: SF-539 CNS
SK-MEL-2 melanoma = test system: SK-MEL-2 melanoma
HOP-62 NSCLC = test system: HOP-62 NSCLC
T-47D breast = test system: T-47D breast
MCF7 breast = test system: MCF7 breast
SK-MEL-5 melanoma = test system: SK-MEL-5 melanoma
HS 578T breast = test system: HS 578T breast
NCI-H226 lung = test system: NCI-H226 lung
M14 melanoma = test system: M14 melanoma
COLO 205 colon = test system: COLO 205 colon
MALME-3M melanoma = test system: MALME-3M melanoma
NCI-H522 lung = test system: NCI-H522 lung
OVCAR-4 ovarian = test system: OVCAR-4 ovarian
U251 CNS = test system: U251 CNS
NCI-H23 lung = test system: NCI-H23 lung

For `Clc1ccc2oc3c(NCCCN4CCOCC4)c4ccccc4nc3c2c1`, the GI50 (KM12 colon) was 2490 nM, the TGI (KM12 colon) was > 100000 nM and the GI50 (SNB-75 CNS) was 1770 nM. It also gave a TGI (SNB-75 CNS) of 5880 nM, a GI50 (MOLT-4 leukemia) of 534 nM and a TGI (MOLT-4 leukemia) of 12700 nM. It also gave a GI50 (IGROV1 ovarian) of 2790 nM, a TGI (IGROV1 ovarian) of 22200 nM and a GI50 (LOX IMVI melanoma) of 1270 nM. The TGI (LOX IMVI melanoma) was 2770 nM, the GI50 (HOP-92 NSCLC) was 1320 nM and the TGI (HOP-92 NSCLC) was 5640 nM. For the same molecule, the GI50 (SK-MEL-28 melanoma) was 1720 nM, the TGI (SK-MEL-28 melanoma) was 3160 nM and the GI50 (786-0 renal) was 1610 nM. The TGI (786-0 renal) was 4450 nM, the GI50 (EKVX NSCLC) was 2890 nM and the TGI (EKVX NSCLC) was 10100 nM. For the same molecule, the GI50 (HL-60(TB) leukemia) was 295 nM, the TGI (HL-60(TB) leukemia) was 1210 nM and the GI50 (SF-268 CNS) was 2320 nM. The TGI (SF-268 CNS) was > 100000 nM, the GI50 (SR leukemia) was 1690 nM and the TGI (SR leukemia) was 8900 nM. It also gave a GI50 (OVCAR-5 ovarian) of 1830 nM, a TGI (OVCAR-5 ovarian) of 5280 nM and a GI50 (CAKI-1 renal) of 1400 nM. It also gave a TGI (CAKI-1 renal) of 3210 nM, a GI50 (UO-31 renal) of 1340 nM and a TGI (UO-31 renal) of 3680 nM. It also gave a GI50 (DU-145 prostate) of 2760 nM, a TGI (DU-145 prostate) of 11500 nM and a GI50 (TK-10 renal) of 4610 nM. It also gave a TGI (TK-10 renal) of 20700 nM, a GI50 (HCT-15 colon) of 1530 nM and a TGI (HCT-15 colon) of 5330 nM. It also gave a GI50 (HCC-2998 colon) of 1360 nM, a TGI (HCC-2998 colon) of 3110 nM and a GI50 (BT-549 breast) of 2370 nM. The TGI (BT-549 breast) was 5510 nM, the GI50 (MDA-MB-435) was 1660 nM and the TGI (MDA-MB-435) was 3350 nM. It also gave a GI50 (A498 renal) of 4060 nM, a TGI (A498 renal) of 17000 nM and a GI50 (SF-295 CNS) of 2760 nM. The TGI (SF-295 CNS) was 11300 nM, the GI50 (OVCAR-3 ovarian) was 3290 nM and the TGI (OVCAR-3 ovarian) was 34700 nM. For the same molecule, the GI50 (K-562 leukemia) was 1560 nM, the TGI (K-562 leukemia) was 10200 nM and the GI50 (UACC-257 melanoma) was 1780 nM. It also gave a TGI (UACC-257 melanoma) of 3500 nM, a GI50 (ACHN renal) of 880 nM and a TGI (ACHN renal) of 2590 nM. For the same molecule, the GI50 (RXF 393 renal) was 1410 nM, the TGI (RXF 393 renal) was 2800 nM and the GI50 (SK-OV-3 ovarian) was 3230 nM. It also gave a TGI (SK-OV-3 ovarian) of 17100 nM, a GI50 (OVCAR-8 ovarian) of 1820 nM and a TGI (OVCAR-8 ovarian) of 5100 nM. The GI50 (RPMI-8226 leukemia) was 2120 nM, the TGI (RPMI-8226 leukemia) was 5050 nM and the GI50 (SW-620 colon) was 839 nM. For the same molecule, the TGI (SW-620 colon) was 3210 nM, the GI50 (MDA-MB-231 breast) was 2270 nM and the TGI (MDA-MB-231 breast) was 8430 nM. It also gave a GI50 (NCI-H460 lung) of 1180 nM, a TGI (NCI-H460 lung) of 3380 nM and a GI50 (SN12C renal) of 1600 nM. The TGI (SN12C renal) was 6360 nM, the GI50 (UACC-62 melanoma) was 2170 nM and the TGI (UACC-62 melanoma) was 5070 nM. The GI50 (SNB-19 CNS) was 3480 nM, the TGI (SNB-19 CNS) was 20000 nM and the GI50 (PC-3 prostate) was 1780 nM. The TGI (PC-3 prostate) was 3990 nM, the GI50 (CCRF-CEM leukemia) was 117 nM and the TGI (CCRF-CEM leukemia) was 5480 nM. It also gave a GI50 (NCI/ADR-RES ovarian) of 1010 nM, a TGI (NCI/ADR-RES ovarian) of 5550 nM and a GI50 (SF-539 CNS) of 1560 nM. The TGI (SF-539 CNS) was 2920 nM, the GI50 (SK-MEL-2 melanoma) was 3000 nM and the TGI (SK-MEL-2 melanoma) was 8790 nM. It also gave a GI50 (HOP-62 NSCLC) of 1720 nM, a TGI (HOP-62 NSCLC) of 4650 nM and a GI50 (T-47D breast) of 3060 nM. For the same molecule, the TGI (T-47D breast) was 18900 nM, the GI50 (MCF7 breast) was 1170 nM and the TGI (MCF7 breast) was 3160 nM. The GI50 (SK-MEL-5 melanoma) was 4150 nM, the TGI (SK-MEL-5 melanoma) was 15700 nM and the GI50 (HS 578T breast) was 3430 nM. For the same molecule, the TGI (HS 578T breast) was 22600 nM, the GI50 (NCI-H226 lung) was 2200 nM and the TGI (NCI-H226 lung) was 6200 nM.
`Clc1ccc2c(N/N=C/c3c[nH]c4ccccc34)ccnc2c1` showed a GI50 (KM12 colon) of 1790 nM, a TGI (KM12 colon) of 3330 nM and a GI50 (SNB-75 CNS) of 1380 nM. For the same molecule, the TGI (SNB-75 CNS) was 2720 nM, the GI50 (MOLT-4 leukemia) was 1050 nM and the TGI (MOLT-4 leukemia) was 3830 nM. The GI50 (M14 melanoma) was 1730 nM, the TGI (M14 melanoma) was 3180 nM and the GI50 (HOP-92 NSCLC) was 539 nM. The TGI (HOP-92 NSCLC) was 2020 nM, the GI50 (SK-MEL-28 melanoma) was 1810 nM and the TGI (SK-MEL-28 melanoma) was 3230 nM. For the same molecule, the GI50 (786-0 renal) was 1410 nM, the TGI (786-0 renal) was 2770 nM and the GI50 (OVCAR-5 ovarian) was 1630 nM. It also gave a TGI (OVCAR-5 ovarian) of 3040 nM, a GI50 (CAKI-1 renal) of 1680 nM and a TGI (CAKI-1 renal) of 3100 nM. It also gave a GI50 (UO-31 renal) of 1320 nM, a TGI (UO-31 renal) of 2660 nM and a GI50 (DU-145 prostate) of 1530 nM. The TGI (DU-145 prostate) was 2930 nM, the GI50 (TK-10 renal) was 2090 nM and the TGI (TK-10 renal) was 3570 nM. For the same molecule, the GI50 (COLO 205 colon) was 1790 nM, the TGI (COLO 205 colon) was 3420 nM and the GI50 (HCT-15 colon) was 373 nM. For the same molecule, the TGI (HCT-15 colon) was 1490 nM, the GI50 (BT-549 breast) was 1550 nM and the TGI (BT-549 breast) was 2910 nM. The GI50 (MALME-3M melanoma) was 1760 nM, the TGI (MALME-3M melanoma) was 3270 nM and the GI50 (MDA-MB-435) was 1750 nM. The TGI (MDA-MB-435) was 3180 nM, the GI50 (A498 renal) was 1510 nM and the TGI (A498 renal) was 2870 nM. For the same molecule, the GI50 (SF-295 CNS) was 1820 nM, the TGI (SF-295 CNS) was 3250 nM and the GI50 (UACC-257 melanoma) was 1650 nM. It also gave a TGI (UACC-257 melanoma) of 3040 nM, a GI50 (ACHN renal) of 1870 nM and a TGI (ACHN renal) of 3270 nM. The GI50 (RXF 393 renal) was 1470 nM, the TGI (RXF 393 renal) was 2830 nM and the GI50 (SK-OV-3 ovarian) was 1670 nM. It also gave a TGI (SK-OV-3 ovarian) of 3130 nM, a GI50 (NCI-H522 lung) of 1770 nM and a TGI (NCI-H522 lung) of 3320 nM. It also gave a GI50 (SW-620 colon) of 793 nM, a TGI (SW-620 colon) of 2200 nM and a GI50 (OVCAR-4 ovarian) of 1830 nM. The TGI (OVCAR-4 ovarian) was 3630 nM, the GI50 (MDA-MB-231 breast) was 1650 nM and the TGI (MDA-MB-231 breast) was 3170 nM. The GI50 (PC-3 prostate) was 1550 nM, the TGI (PC-3 prostate) was 2950 nM and the GI50 (NCI/ADR-RES ovarian) was 1930 nM. The TGI (NCI/ADR-RES ovarian) was 4450 nM, the GI50 (U251 CNS) was 837 nM and the TGI (U251 CNS) was 2110 nM. It also gave a GI50 (SF-539 CNS) of 1720 nM, a TGI (SF-539 CNS) of 3120 nM and a GI50 (SK-MEL-2 melanoma) of 1830 nM. For the same molecule, the TGI (SK-MEL-2 melanoma) was 3350 nM, the GI50 (HOP-62 NSCLC) was 1670 nM and the TGI (HOP-62 NSCLC) was 3250 nM. The GI50 (NCI-H23 lung) was 1620 nM, the TGI (NCI-H23 lung) was 3170 nM and the GI50 (SK-MEL-5 melanoma) was 1750 nM. The TGI (SK-MEL-5 melanoma) was 3140 nM, the GI50 (NCI-H226 lung) was 1880 nM and the TGI (NCI-H226 lung) was 4540 nM.
